One molecule from ChEMBL document CHEMBL1156506, “Changes to the HIV long terminal repeat and to HIV integrase differentially impact HIV integrase assembly, activity, and the binding of strand transfer inhibitors” (J Biol Chem, 2007) can be followed below.

The nature of the experiment: Binding affinity to HIV wild type integrase. Set-up: species or system Human immunodeficiency virus.

Consider `[3H]C([3H])([3H])n1c(N2CCCCS2(=O)=O)nc(C(=O)NCc2ccc(F)cc2)c(O)c1=O`, for which the Kd is 0.021 µM.
